Reference: US20260174875A1 (Novo Nordisk A/S, priority 2023, published 2026)
Read-outs that look alike come from different tables or passages of the source. Numbered stars: 1 amine (or outer) side, 2 acyl side, 3 side chain; on linkers, the order of the positions; unused ones are H or OH. Square brackets hold non-standard residues; d marks the D form. Side chains are listed from the residue outwards. * marks the point of attachment. C20 diacid = O=C(O)CCCCCCCCCCCCCCCCCCC(=O)*; C18 diacid = O=C(O)CCCCCCCCCCCCCCCCC(=O)*; C16 diacid = O=C(O)CCCCCCCCCCCCCCC(=O)*; γGlu = O=C(O)[C@H](CCC(=O)[*:2])N[*:1]; AEEA = NCCOCCOCC(=O)O; Aib = CC(C)(N)C(=O)O

Legend:
[1] = target: T1, human GLP-1 receptor (hGLP-1R) (Homo sapiens, UniProt P43220); experiment: GLP-1 receptor assay, method A (CRE-luciferase reporter, BHK cells); type: cell-based
T1 construct: expressed in transfected cells
Outline: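 Run in parallel with no HSA and with 1% (w/v) HSA to gauge albumin effects; assay buffer also held 1% ovalbumin, 10 mM HEPES and 0.1% Pluronic F-68. Thawed hGLP-1R BHK CRE-Luc cells incubated 3 h at 37 °C, then luciferase luminescence measured (steadylite Plus).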

[2] = target: T2, human GIP receptor (hGIPR) (Homo sapiens, UniProt P48546); experiment: GIP receptor assay, method A (CRE-luciferase reporter, BHK cells); type: cell-based
T2 construct: expressed in transfected cells
T2 sequence (P48546 22-466): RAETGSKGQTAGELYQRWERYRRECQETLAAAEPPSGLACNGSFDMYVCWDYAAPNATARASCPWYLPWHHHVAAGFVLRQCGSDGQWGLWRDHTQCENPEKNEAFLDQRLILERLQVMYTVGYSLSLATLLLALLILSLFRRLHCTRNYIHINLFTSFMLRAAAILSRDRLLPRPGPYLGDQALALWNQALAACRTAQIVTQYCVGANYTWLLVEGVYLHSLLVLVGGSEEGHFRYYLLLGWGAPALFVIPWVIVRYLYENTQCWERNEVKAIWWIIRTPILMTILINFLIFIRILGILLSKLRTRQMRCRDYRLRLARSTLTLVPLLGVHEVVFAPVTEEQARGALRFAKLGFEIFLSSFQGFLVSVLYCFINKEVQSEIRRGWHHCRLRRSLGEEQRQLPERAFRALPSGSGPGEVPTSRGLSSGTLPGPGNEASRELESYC
Outline: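 Receptor activation was read as luciferase luminescence in hGIPR-expressing BHK CRE-Luc cells after 3 h compound exposure at 37 °C. Titrations (10-fold, 7 points, duplicate) ran in buffer containing 1% ovalbumin, with 1% HSA final or without; EC50 in pM fitted by four-parameter logistic model, Hill slope shared.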

[3] = hGLP-1R Potency, 1% HSA, EC50, method A, in the presence of 1% HSA
[4] = hGIPR Potency, 1% HSA, EC50, method A, in the presence of 1% HSA
[5] = method A, absence of HSA, read-out: hGIPR Potency, no HSA, EC50
[6] = hGLP-1R Potency, no HSA, EC50, method A, absence of HSA
[7] = hGIPR Potency, no HSA, EC50, method A, absence of HSA
[8] = method A, absence of HSA, read-out: hGLP-1R Potency, no HSA, EC50

T1 sequence (P43220 24-463): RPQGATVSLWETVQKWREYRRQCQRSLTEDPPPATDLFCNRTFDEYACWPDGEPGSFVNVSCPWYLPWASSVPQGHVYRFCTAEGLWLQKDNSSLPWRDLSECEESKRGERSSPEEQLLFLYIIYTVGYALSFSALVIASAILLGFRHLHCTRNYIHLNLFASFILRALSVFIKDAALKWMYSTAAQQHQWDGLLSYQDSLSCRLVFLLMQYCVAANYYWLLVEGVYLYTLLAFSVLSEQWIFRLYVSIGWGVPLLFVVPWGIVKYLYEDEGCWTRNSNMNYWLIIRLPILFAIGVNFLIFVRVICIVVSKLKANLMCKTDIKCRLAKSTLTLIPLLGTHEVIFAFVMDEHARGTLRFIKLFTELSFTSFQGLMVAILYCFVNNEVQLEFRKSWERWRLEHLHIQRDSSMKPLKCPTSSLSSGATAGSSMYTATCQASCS

EC50 [1, 3] [nM]	EC50 [2, 4] [nM]	EC50 [2, 5] [nM]	EC50 [1, 8] [nM]	potency ratio (A/B): highest EC50 divided by lowest EC50 over hGLP-1R, hGIPR, hAMYR3 ([1]; absence of HSA, <50 = balanced tri-agonist)	Substance	EC50 [1, 6] [nM]	EC50 [2, 7] [nM]
0.179	0.129	0.00187	0.00324	–	H[Aib]HGTFTSDYSILLEEQAAREFIEWLLAGGPSK([AEEA-AEEA-γGlu-C18 diacid])GAPPPSGGGEASHLSTAQTARLSAELHQLATLPRTETGSGSP-NH2 [compound 101]	–	–
0.0759	0.254	0.00584	0.00205	–	H[Aib]HGTFTSDYSILLEEQAAREFIEWLLAGGPSK([AEEA-AEEA-γGlu-C18 diacid])GAPPPSGGGGASELSTAALGRLSAELHRLATLPRTETGSGSP-NH2 [Compound 14]	–	–
0.101	0.0632	0.0016	0.00477	–	H[Aib]HGTFTSDYSILLEEQAAREFIEWLLAGGPSK([AEEA-AEEA-γGlu-C18 diacid])GEASQLSTAALGRLSAELHTLATLPRTETGSGSP-NH2 [Compound 63]	–	–
0.0204	0.00805	0.0019	0.00345	–	H[Aib]HGTFTSDYSILLEEQAAREFIEWLLAGGPSRGEASHLSTAQTQRLSAELHK([AEEA-AEEA-γGlu-C18 diacid])LATLPRTETGSGSP-NH2 [Compound 69]	–	–
0.0174	0.00931	0.00321	0.00379	–	H[Aib]HGTFTSDYSILLEEQAAREFIEWLLAGGPSSGAGQAPGQAPGASHLSTAQTQRLSAELHRLK([AEEA-AEEA-γGlu-C18 diacid])TLPRTETGSGSP-NH2 [Compound 91]	–	–
0.246	0.0424	0.00211	0.0138	7	Y[Aib]EGTFTSDYSILLEEQAAREFIEWLLAGGPSK([AEEA-AEEA-γGlu-C16 diacid])GAPPPSGGGEASELSTAALGRLSAELHELATLPRTETGSGSP-NH2 [compound 10]	–	–
1.68	0.558	0.00175	0.0207	–	Y[Aib]EGTFTSDYSILLEEQAAREFIEWLLAGGPSK([AEEA-AEEA-γGlu-C18 diacid])GEASELSTAALGRLSAELHELATLPRTETGSGSP-NH2 [Compound 26]	–	–
2.35	0.336	0.00137	0.012	–	Y[Aib]EGTFTSDYSILLEEQAAREFIEWLLAGGPSK([AEEA-AEEA-γGlu-C18 diacid])GGQAPGQAPGEASHLSTAQTQRLSAELHELATLPRTETGSGSP-NH2 [Compound 38]	–	–
0.0792	0.0146	0.00325	0.0233	–	Y[Aib]EGTFTSDYSILLEEQAAREFIEWLLAGGPSSGAGQAPGQAPGASHLSTAALGRLSAELHK([AEEA-AEEA-γGlu-C18 diacid])LATLPRTETGSGSP-NH2 [Compound 53]	–	–
0.0269	0.00679	0.00183	0.011	–	Y[Aib]EGTFTSDYSILLEEQAAREFIEWLLAGGPSSGAGQAPGQAPGASHLSTAQTQRLSAELHK([AEEA-AEEA-γGlu-C18 diacid])LATLPRTETGSGSP-NH2 [compound 52]	–	–
0.0584	0.00848	0.00265	0.0182	–	Y[Aib]EGTFTSDYSILLEEQAAREFIEWLLAGGPSSGAGQAPGQAPGASHLSTAQTQRLSAELHRLK([AEEA-AEEA-γGlu-C18 diacid])TLPRTETGSGSP-NH2 [Compound 56]	–	–

Continued, substance first:

Substance	EC50 [1, 3] [nM]	EC50 [2, 4] [nM]	EC50 [2, 5] [nM]	EC50 [1, 8] [nM]	potency ratio (A/B): highest EC50 divided by lowest EC50 over hGLP-1R, hGIPR, hAMYR3 ([1]; absence of HSA, <50 = balanced tri-agonist)	EC50 [1, 6] [nM]	EC50 [2, 7] [nM]
H[Aib]HGTFTSDYSILLEEQAAREFIEWLLAGGPSK([AEEA-AEEA-γGlu-C16 diacid])GAPPPSGGGEASELSTAALGRLSAELHELATLPRTETGSGSP-NH2 [Compound 12]	0.0102	0.0591	0.00262	–	–	–	–
H[Aib]HGTFTSDYSILLEEQAAREFIEWLLAGGPSK([AEEA-AEEA-γGlu-C16 diacid])GAPPPSGGGEASHLSTAQTARLSAELHRLADLPRTETGSGSP-NH2 [Compound 61]	0.0147	0.016	–	–	–	0.00279	0.0013
H[Aib]HGTFTSDYSILLEEQAAREFIEWLLAGGPSK([AEEA-AEEA-γGlu-C16 diacid])GEASELSTAALGRLSAELHRLATLPRTETGSGSP-NH2 [Compound 17]	0.0131	0.0369	0.00504	0.00272	–	–	–
H[Aib]HGTFTSDYSILLEEQAAREFIEWLLAGGPSK([AEEA-AEEA-γGlu-C16 diacid])GEASQLSTAALGRLSAELHRLADLPRTETGSGSP-NH2 [Compound 62]	0.0115	0.0472	–	–	–	0.00413	0.00226
H[Aib]HGTFTSDYSILLEEQAAREFIEWLLAGGPSK([AEEA-AEEA-γGlu-C18 diacid])GAPPPSGGGEASELSTAALGRLSAELHELATLPRTETGSGSP-NH2 [Compound 15]	0.103	0.356	0.0032	0.00141	–	–	–
H[Aib]HGTFTSDYSILLEEQAAREFIEWLLAGGPSK([AEEA-AEEA-γGlu-C18 diacid])GEASHLSTAQTARLSAELHELATLPRTETGSGSP-NH2 [Compound 36]	0.208	0.226	0.00196	0.00319	–	–	–
H[Aib]HGTFTSDYSILLEEQAAREFIEWLLAGGPSK([AEEA-AEEA-γGlu-C18 diacid])GEASQLSTAALGRLSAELHQLATLPRTETGSGSP-NH2 [Compound 64]	0.0678	0.1	0.00203	0.00371	–	–	–
H[Aib]HGTFTSDYSILLEEQAAREFIEWLLAGGPSK([AEEA-AEEA-γGlu-C20 diacid])GAPPPSGGGEASELSTAALGRLSAELHELATLPRTETGSGSP-NH2 [Compound 16]	0.238	0.485	0.00427	0.00274	–	–	–
H[Aib]HGTFTSDYSILLEEQAAREFIEWLLAGGPSSGAGQAPGQAPGASHLSTAQTQRLSAK([AEEA-AEEA-γGlu-C18 diacid])LHRLATLPRTETGSGSP-NH2 [Compound 78]	0.0178	0.0104	0.00349	0.00403	–	–	–
H[Aib]HGTFTSDYSILLEEQAAREFIEWLLAGGPSSGAGQAPGQAPLASHLSTAQTQRLSAELHK([AEEA-AEEA-γGlu-C18 diacid])LATLPRTETGSGSP-NH2 [Compound 93]	0.0164	0.00858	0.00254	0.00411	–	–	–
H[Aib]HGTFTSDYSILLEEQAAREFIEWLLAGGPSSGEASHLSTAALGRLSAELHRLK([AEEA-AEEA-γGlu-C18 diacid])TLPRTETGSGSP-NH2 [Compound 89]	0.0295	0.0306	0.00647	0.00386	–	–	–
H[Aib]HGTFTSDYSILLEEQAAREFIEWLLAGGPSSGEASHLSTAALGRLSAK([AEEA-AEEA-γGlu-C18 diacid])LHRLATLPRTETGSGSP-NH2 [Compound 87]	0.0393	0.0386	0.00726	0.00849	–	–	–
H[Aib]HGTFTSDYSILLEEQAAREFIEWLLAGGPSSGEASHLSTAQTQRLSAK([AEEA-AEEA-γGlu-C18 diacid])LHRLATLPRTETGSGSP-NH2 [Compound 82]	0.0242	0.0191	0.0037	0.00345	–	–	–
Y[Aib]EGTFTSDYSILLEEQAAREFIEWLLAGGPSK([AEEA-AEEA-γGlu-C16 diacid])GEASELSTAALGRLSAELHELATLPRTETGSGSP-NH2 [Compound 11]	0.204	0.0583	0.00169	0.0104	–	–	–
Y[Aib]EGTFTSDYSILLEEQAAREFIEWLLAGGPSK([AEEA-AEEA-γGlu-C18 diacid])GEASHLSTAQTARLSAELHELATLPRTETGSGSP-NH2 [Compound 35]	–	–	0.00197	0.0233	–	–	–
Y[Aib]EGTFTSDYSILLEEQAAREFIEWLLAGGPSRGEASHLSTAQTQRLSAELHK([AEEA-AEEA-γGlu-C18 diacid])LATLPRTETGSGSP-NH2 [compound 68]	0.0519	0.0119	0.00183	0.0121	–	–	–
Y[Aib]EGTFTSDYSILLEEQAAREFIEWLLAGGPSSGAGQAPGASHLSTAQTQRLSAELHK([AEEA-AEEA-γGlu-C18 diacid])LATLPRTETGSGSP-NH2 [Compound 97]	0.109	0.00838	0.0023	0.0161	–	–	–
Y[Aib]EGTFTSDYSILLEEQAAREFIEWLLAGGPSSGAGQAPGQAPGASHLSTAQTQRLSAELHRLATLPK([AEEA-AEEA-γGlu-C18 diacid])TETGSGSP-NH2 [Compound 57]	0.0296	0.00585	0.00198	0.0128	–	–	–
Y[Aib]EGTFTSDYSILLEEQAAREFIEWLLAGGPSSGAGQAPGQAPGASHLSTAQTQRLSAK([AEEA-AEEA-γGlu-C18 diacid])LHRLATLPRTETGSGSP-NH2 [compound 55]	0.0453	0.0103	0.003	0.023	–	–	–
